In paper PMC7714403 (JCI Insight, 2020):
Where two headings read alike, the source gives them in different places.

What was measured:
GSK3B = GSK3B (Homo sapiens, UniProt P49841); assay: KiNativ, OCI cells live cell; assay type: cell-based; details: 2 h, labeling site Lys2, peptide […]
[1] = tested on: MV4-11, MOLM13, and MOLM13-RES cells; assay: Apoptosis assay (annexin V); assay type: cell-based, human; details: 20 nM, 24 and 48 hours
Experimental: (§1) Apoptosis and CD11b expression assays
(§2) At indicated time points, cells were collected and washed with PBS. CD11b expression was measured using anti-CD11b -APC antibody (BioLegend, San Diego, CA). Each sample was suspended in 100uL of FACS buffer (PBS + 4% FBS) with 1uL of antibody, incubated on ice for 15 minutes in the dark and washed once in PBS. DAPI (final concentration 1ug/mL [ThermoFisher Scientific]) was added to each sample as a viability dye. For apoptosis assay, cells were incubated with annexin V-APC (BioLegend) according to manufacturer’s instructions. CD11b expression and apoptosis were measured by BD LSR II flow cytometer. Two-color cytometry was performed, and data were […]
(§3) points, cells were collected and washed with 0.1% EDTA PBS (Ricca Chemical Company, Arlington, TX) followed by only PBS. Cells were then fixed on ice with ice-cold 70% ethanol for 30 minutes . Cells were either stored at -20°C for up to 1 month or processed immediately. Cells were spun down at 450 x g for 10 minutes and stained

OCI-AML3 cells = assay: Apoptosis assay (annexin V); assay type: cell-based, human; details: 20–50 nM, 72 hours
Experimental: as §1, §2, §3

ARAF = ARAF (Homo sapiens, UniProt P10398); assay: KiNativ, OCI cells live cell; assay type: cell-based; details: 2 h, labeling site Lys2, peptide […]
Chain of ARAF (P10398 whole entry): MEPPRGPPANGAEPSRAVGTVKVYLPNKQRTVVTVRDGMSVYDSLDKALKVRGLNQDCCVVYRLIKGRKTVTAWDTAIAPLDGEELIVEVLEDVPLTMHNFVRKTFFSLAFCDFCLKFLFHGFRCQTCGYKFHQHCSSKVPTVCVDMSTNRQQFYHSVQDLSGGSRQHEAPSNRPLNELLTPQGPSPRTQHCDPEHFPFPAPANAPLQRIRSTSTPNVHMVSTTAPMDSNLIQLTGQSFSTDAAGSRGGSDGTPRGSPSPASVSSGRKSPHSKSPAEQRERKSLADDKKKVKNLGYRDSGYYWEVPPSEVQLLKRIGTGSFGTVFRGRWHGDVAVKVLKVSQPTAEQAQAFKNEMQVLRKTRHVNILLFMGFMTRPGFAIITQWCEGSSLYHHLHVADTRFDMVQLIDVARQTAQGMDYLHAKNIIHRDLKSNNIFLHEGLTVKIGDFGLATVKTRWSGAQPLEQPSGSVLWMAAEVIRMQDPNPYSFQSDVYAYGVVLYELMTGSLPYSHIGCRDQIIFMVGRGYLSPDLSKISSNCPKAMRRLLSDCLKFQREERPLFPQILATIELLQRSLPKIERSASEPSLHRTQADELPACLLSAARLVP

ACK1 = ACK1 (Homo sapiens, UniProt Q07912); assay: KiNativ in situ kinase profiling, OCI-AML3 cells; assay type: cell-based
Chain of ACK1 (Q07912 whole entry): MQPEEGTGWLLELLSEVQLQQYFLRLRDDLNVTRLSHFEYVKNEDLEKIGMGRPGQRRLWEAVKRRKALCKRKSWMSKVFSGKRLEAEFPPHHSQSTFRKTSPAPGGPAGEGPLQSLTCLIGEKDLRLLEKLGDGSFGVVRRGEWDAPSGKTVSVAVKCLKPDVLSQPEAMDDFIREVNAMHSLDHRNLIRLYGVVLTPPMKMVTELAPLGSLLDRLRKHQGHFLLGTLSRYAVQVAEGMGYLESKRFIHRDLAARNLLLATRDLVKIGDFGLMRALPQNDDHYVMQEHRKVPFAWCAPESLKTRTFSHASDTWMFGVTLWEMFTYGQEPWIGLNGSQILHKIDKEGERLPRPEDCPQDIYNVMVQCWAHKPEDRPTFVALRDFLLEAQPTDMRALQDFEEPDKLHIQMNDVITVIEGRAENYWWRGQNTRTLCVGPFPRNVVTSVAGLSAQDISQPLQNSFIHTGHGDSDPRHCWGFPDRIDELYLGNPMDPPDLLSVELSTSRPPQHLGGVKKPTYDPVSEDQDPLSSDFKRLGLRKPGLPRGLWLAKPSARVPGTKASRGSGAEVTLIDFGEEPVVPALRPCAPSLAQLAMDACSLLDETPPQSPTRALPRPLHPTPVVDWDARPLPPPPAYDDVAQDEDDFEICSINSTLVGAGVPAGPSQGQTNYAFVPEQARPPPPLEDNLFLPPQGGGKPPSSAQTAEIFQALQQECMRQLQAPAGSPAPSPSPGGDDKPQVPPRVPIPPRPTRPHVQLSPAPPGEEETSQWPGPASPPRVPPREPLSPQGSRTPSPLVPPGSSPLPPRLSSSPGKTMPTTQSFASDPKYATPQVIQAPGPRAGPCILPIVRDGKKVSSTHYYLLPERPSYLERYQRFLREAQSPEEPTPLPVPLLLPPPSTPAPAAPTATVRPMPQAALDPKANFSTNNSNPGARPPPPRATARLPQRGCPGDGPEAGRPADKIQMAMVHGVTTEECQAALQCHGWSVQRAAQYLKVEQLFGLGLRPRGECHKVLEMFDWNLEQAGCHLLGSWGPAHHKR
Experimental: Samples were analyzed by KiNativ in situ kinase profiling by ActivX Biosciences.

IKKa = IKKa (Homo sapiens, UniProt O15111); assay: KiNativ, OCI cells live cell; assay type: cell-based; details: 2 h, labeling site Lys2, peptide […]
Chain of IKKa (O15111 whole entry): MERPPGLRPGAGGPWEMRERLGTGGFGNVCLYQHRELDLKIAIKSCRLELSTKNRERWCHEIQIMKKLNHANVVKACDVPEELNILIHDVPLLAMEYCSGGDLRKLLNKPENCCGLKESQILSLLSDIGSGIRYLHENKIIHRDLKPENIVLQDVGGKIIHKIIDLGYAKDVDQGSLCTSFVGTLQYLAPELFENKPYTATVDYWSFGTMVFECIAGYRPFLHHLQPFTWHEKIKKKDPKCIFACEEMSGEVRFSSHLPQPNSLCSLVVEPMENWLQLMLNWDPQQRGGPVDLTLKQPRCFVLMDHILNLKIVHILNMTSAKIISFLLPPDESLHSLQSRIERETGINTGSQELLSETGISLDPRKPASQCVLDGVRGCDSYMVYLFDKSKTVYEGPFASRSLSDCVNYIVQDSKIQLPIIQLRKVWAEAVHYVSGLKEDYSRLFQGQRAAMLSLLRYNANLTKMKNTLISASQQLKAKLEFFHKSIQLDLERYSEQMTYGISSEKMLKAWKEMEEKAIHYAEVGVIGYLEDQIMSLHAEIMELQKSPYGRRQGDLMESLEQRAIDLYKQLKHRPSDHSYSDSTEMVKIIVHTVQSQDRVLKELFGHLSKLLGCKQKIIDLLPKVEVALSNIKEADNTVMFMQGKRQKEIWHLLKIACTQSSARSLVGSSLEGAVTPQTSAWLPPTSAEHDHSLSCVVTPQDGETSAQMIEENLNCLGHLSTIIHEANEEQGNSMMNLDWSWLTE

MST1, MST2 = assay: KiNativ, OCI cells live cell; assay type: cell-based, human; details: labeling site Lys2, peptide DIKAGNILLNTEGHAK
FER = FER (Homo sapiens, UniProt P16591); assay: KiNativ, OCI cells live cell; assay type: cell-based; details: 2 h, labeling site Activation Loop, peptide […]
Chain of FER (P16591 whole entry): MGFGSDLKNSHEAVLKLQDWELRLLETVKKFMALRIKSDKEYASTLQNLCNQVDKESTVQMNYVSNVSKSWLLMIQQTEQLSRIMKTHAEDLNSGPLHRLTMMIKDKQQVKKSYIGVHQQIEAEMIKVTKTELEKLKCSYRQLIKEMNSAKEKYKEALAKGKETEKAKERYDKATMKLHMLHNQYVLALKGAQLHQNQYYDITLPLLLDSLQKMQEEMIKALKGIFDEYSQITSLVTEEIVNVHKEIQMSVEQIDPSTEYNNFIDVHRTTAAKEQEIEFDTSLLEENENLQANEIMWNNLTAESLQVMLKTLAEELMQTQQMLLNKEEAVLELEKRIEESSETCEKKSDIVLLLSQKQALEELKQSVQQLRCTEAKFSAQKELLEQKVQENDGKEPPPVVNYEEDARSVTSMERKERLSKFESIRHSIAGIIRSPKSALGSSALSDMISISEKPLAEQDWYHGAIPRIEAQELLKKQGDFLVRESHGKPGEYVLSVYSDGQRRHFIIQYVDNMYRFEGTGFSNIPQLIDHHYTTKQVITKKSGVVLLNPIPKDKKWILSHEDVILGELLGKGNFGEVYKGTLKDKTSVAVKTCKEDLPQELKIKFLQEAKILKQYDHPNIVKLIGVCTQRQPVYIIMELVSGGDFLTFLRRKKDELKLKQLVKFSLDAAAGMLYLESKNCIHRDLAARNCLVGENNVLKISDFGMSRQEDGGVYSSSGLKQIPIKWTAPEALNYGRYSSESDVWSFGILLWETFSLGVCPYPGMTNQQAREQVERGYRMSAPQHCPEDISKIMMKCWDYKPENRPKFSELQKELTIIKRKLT

GSK3A = GSK3A (Homo sapiens, UniProt P49840); assay: KiNativ, OCI cells live cell; assay type: cell-based; details: 2 h, labeling site Lys2, peptide […]
FGR = FGR (Homo sapiens, UniProt P09769); assay: KiNativ, OCI cells live cell; assay type: cell-based; details: 2 h, labeling site Activation Loop, peptide […]
Chain of FGR (P09769 whole entry): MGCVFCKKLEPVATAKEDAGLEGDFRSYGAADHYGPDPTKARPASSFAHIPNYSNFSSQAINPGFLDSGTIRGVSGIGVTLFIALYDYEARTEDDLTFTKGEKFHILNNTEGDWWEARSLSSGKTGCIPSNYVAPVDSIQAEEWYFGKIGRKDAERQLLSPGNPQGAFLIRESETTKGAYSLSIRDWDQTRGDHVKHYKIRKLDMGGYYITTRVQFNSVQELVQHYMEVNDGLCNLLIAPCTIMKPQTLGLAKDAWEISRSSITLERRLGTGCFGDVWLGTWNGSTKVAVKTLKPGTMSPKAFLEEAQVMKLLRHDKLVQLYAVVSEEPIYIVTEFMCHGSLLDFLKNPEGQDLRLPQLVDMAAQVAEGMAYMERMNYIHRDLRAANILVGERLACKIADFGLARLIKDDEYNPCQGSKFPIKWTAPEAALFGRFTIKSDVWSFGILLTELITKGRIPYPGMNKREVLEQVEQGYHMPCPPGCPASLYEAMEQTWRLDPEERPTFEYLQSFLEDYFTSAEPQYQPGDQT

CDK7 = CDK7 (Homo sapiens, UniProt P50613); assay: KiNativ, OCI cells live cell; assay type: cell-based; details: 2 h, labeling site Lys2, peptide […]
Chain of CDK7 (P50613 2-346 limits assumed): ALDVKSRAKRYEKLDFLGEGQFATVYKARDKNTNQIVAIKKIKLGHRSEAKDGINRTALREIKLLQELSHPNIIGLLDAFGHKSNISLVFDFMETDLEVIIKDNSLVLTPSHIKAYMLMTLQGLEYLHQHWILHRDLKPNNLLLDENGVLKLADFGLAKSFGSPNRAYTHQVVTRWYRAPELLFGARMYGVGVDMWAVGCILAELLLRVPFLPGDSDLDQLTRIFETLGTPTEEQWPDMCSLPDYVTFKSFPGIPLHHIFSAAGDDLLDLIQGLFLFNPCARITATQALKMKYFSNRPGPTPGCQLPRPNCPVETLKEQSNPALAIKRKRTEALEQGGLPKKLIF
Chain of CDK7 (P51946 whole entry partner): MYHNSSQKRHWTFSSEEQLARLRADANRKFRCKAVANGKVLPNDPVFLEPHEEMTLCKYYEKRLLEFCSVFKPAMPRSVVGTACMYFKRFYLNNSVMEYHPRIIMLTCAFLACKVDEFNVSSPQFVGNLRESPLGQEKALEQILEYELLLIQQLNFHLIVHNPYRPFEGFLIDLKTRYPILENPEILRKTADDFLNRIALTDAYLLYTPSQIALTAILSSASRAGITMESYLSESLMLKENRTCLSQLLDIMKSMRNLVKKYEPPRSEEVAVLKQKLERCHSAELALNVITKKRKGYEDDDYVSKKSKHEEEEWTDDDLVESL
Chain of CDK7 (P51948 whole entry partner): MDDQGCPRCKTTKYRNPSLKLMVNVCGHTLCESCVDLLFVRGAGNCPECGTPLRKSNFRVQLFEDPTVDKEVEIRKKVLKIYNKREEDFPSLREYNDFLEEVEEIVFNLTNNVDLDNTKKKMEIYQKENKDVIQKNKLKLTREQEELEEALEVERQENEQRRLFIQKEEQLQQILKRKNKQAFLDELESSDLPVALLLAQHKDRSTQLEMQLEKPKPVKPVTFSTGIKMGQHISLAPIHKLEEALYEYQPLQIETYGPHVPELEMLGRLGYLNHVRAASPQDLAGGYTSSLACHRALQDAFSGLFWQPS

TLK1 = target: T1, TLK1 (Homo sapiens, UniProt Q9UKI8); assay: KiNativ, OCI cells live cell; assay type: cell-based; details: 2 h
T1 sequence (Q9UKI8 1-766): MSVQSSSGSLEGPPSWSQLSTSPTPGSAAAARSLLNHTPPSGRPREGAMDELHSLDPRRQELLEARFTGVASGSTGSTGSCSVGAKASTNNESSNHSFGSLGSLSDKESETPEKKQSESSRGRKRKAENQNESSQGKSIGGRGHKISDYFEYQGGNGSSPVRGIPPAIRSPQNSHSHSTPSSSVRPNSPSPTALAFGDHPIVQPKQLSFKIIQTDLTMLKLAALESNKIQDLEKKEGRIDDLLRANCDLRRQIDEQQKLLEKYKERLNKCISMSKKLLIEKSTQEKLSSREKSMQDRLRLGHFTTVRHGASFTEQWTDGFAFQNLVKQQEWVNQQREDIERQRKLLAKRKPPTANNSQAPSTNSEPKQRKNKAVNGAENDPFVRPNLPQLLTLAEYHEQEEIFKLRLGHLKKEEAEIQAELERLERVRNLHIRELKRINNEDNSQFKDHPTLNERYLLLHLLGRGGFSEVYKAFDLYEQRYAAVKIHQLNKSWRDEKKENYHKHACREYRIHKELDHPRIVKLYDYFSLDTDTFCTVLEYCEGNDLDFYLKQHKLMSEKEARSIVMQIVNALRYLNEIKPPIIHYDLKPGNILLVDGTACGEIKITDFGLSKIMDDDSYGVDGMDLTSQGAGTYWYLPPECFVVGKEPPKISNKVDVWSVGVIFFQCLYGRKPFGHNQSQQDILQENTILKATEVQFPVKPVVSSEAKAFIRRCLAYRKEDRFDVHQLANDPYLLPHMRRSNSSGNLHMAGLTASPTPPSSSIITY

RSK3 domain1 = target: T2, RSK3 domain1 (Homo sapiens, UniProt Q15349); assay: KiNativ, OCI cells live cell; assay type: cell-based; details: 2 h, labeling site Lys2, peptide […]
T2 construct: RSK3 domain1

CN1CCN(Cc2ccc(Nc3ncc(Cl)c(Nc4ccccc4S(=O)(=O)N(C)C)n3)cc2)CC1 [TP-0903]
inhibition at 0.1 µM (GSK3B): 32.3%
Apoptosis [1]: significant apoptosis
Apoptosis (OCI-AML3 cells): significant apoptosis
inhibition at 0.1 µM (ARAF): -0.7%
inhibition at 0.1 µM (ACK1; OCI-AML-3, 2 h, OCI cells, live cell, labeling site Activation Loop, peptide KVPFAWCAPESLK, read-out: Inhibition): 81.6%
inhibition at 0.1 µM (ACK1; OCI-AML-3, 2 h, OCI cells, live cell, labeling site Lys1, peptide TVSVAVKCLKPDVLSQPEAMDDFIR, read-out: Inhibition): 86.9%
inhibition at 0.1 µM (ACK1; OCI-AML-3, OCI-AML3 cells, 100 nM, read-out: Inhibition of ACK1): 87%
inhibition at 0.1 µM (IKKa): 2.6%
Inhibition (MST1, MST2): 35.6%
inhibition at 0.1 µM (FER): 70.2%
inhibition at 0.1 µM (GSK3A): 22.6%
inhibition at 0.1 µM (FGR): 9.5%
inhibition at 0.1 µM (CDK7): 95.7%
inhibition at 0.1 µM (TLK1; labeling site Lys1, peptide YAAVKIHQLNK): -15.2%
inhibition at 0.1 µM (TLK1; labeling site Lys2, peptide YLNEIKPPIIHYDLKPGNILLVDGTACGEIK): -2.5%
inhibition at 0.1 µM (RSK3 domain1): 53.5%
